The values that follow come from article PMC10151334, “Anti-proliferative potential and oxidative reactivity of thermo-oxidative degradation products of stigmasterol and stigmasteryl esters for human intestinal cells” (Scientific Reports, 2023).

Where two headings read alike, the source gives them in different places.

One data set deals with S. typhimurium TA102. The data set can be described thus: Bacterial reverse mutation assay (Ames test), strain TA102. The note with it: for effect on TA102 revertants: 40 μg/mL, regardless of metabolic activation (+/− S9). As for the experimental part:
(§1) Potential mutagenicity or pro-mutagenicity of non-heated and heated ST, ST-LA, and ST-OA was determined using the bacterial reverse mutation assay (Ames test) with Salmonella enterica subsp. enterica ser. typhimurium tester strains TA98, TA100, and TA102, which were obtained from the Polish Collection of Microorganisms of the Institute of Immunology and Experimental Therapy of the Polish Academy of Sciences in Wroclaw.
(§2) Mutagenicity experiments were performed in the liquid pre-incubation assay, without and with metabolic activation by supplying Aroclor 1254-induced rat liver microsomal fraction (S9, Sigma-Aldrich) with NADP and cofactors for NADPH-supported oxidation, according to the procedure described by Mortelmans and Zeiger[39]. Briefly, reaction mixtures, consisting of 12-h bacterial culture, non-heated and heated compound (ST, ST-LA, ST-OA) at a concentration of 40 μg, 0.2 M phosphate buffer (pH 7.4), and alternatively S9 activating mixture, were pre-incubated at 37 °C for 20 min. […] The mutagen, 2-aminoanthracene (5 μg) (Sigma-Aldrich), was a positive control in pro-mutagenicity experiments. After pre-incubation, the reaction mixtures were added to the top agar supplemented with traces of histidine and biotin and poured onto the plates covered with minimum glucose agar. The cultures were incubated for 48 h at 37 °C, and the number of revertants (His+) colonies was counted manually.
(§3) Compounds with MI ≥ 2 can be recognized as potentially mutagenic.
On the technique in general: In the Ames test, an excess of revertant colonies over the control signals mutagenicity.

In the next data set the test system is S. typhimurium TA100. The note with it: for Mutagenic index TA100: reference mutagen; for reversion of mutations in TA100: 40 μg/mL, presence and absence of the microsomal fraction. As to the method: as §1, §2, §3
A further data set has as its system S. typhimurium TA98. The data set can be described thus: Bacterial reverse mutation assay (Ames test), strain TA98. Particulars: for reversion of mutations in TA98: 40 μg/mL, presence and absence of the microsomal fraction. As for the experimental part: as §1, §2, §3
Data set [1] deals with CCD 841 CoN cells. The data set can be described thus: DNA damage detection, comet assay (SCGE). The data set is classed as cell-based, human. The note with it: reference oxidant, 100 μM, 30 min. As to the method: The cells were grown at 6-well plates at the established density and standard culture conditions and exposed to the non-heated and heated ST, ST-OA, and ST-LA for 48 h. The non-treated cells and cells treated with H2O2 (100 μM, 30 min) to induce oxidative DNA damage constituted the negative and positive controls, respectively. After treatment, cells were analyzed for DNA damage using a single cell gel electrophoresis (SCGE) called comet assay, described in detail previously. Briefly, harvested cells suspended in low melting point agarose were put onto microscope slides pre-coated with normal melting point agarose and subjected sequentially to lysis, alkaline electrophoresis (pH > 13), and neutralization ([…]). The cells were stained with SYBRGold (Molecular Probes), viewed under a fluorescence microscope (Axiovert 200, Zeiss, Carl Zeiss, Gottingen, Germany), and analyzed using CometScore™ software (TriTek Corp., Sumerduck, VA, USA). At least 100 cells were analyzed on a microscope slide; 300 cells were considered for DNA damage detection in one sample. Data were expressed as the mean percentage of DNA content in the comet tail. […] Based on the comets' categorization, the total comet score (TCS) was calculated according to the formula: TCS = 0(n) + 1(n) + 2(n) + 3(n) + 4(n), where “n” is the number of cells in each comet class (0–4)[45].

Data set [2] concerns CCD 841 CoN cells. The data set can be described thus: DNA synthesis, BrdU incorporation (Cell Proliferation ELISA). Type of data set: cell-based, human. Particulars: 10-40 μg/mL, 48 h. As to the method:
CCD 841 CoN cells were grown in black 96-well plates at an initial cell density of 2 × 10^4 cells/cm^2 for 24 h under standard culture conditions. The cells were treated with ST (2.5, 5, 10, 20, and 40 μg/mL) and its esters ST-OA and ST-LA (10, 20, and 40 μg/mL) for 48 h. DNA synthesis was measured by incorporating thymidine analog 5-bromo-2′-deoxyuridine (BrdU) into newly synthesized DNA using the Cell Proliferation ELISA kit according to the protocol recommended by the manufacturer (Roche Diagnostics GmbH, Mannheim, Germany). Briefly, BrdU was added to the treated cells 24 h before the end of the exposure to the ST, ST-OA, and ST-LA (final BrdU concentration of 10 μM). After treatment, BrdU-labeled DNA was denatured (30 min, 20 °C). Then, BrdU was bonded with a peroxidase-conjugated anti-BrdU antibody (90 min, 20 °C) and reacted with the peroxidase substrate. The absorbance measurement was done with a stop solution (1 M H2SO4) at 450 nm with reference wavelength 690 nm using a Tecan M200 Infinite microplate reader.
(In general: Uptake of a labelled nucleoside into DNA is a usual measure of proliferation.)

Data set [3] relates to CCD 841 CoN cells. The data set can be described thus: Cell cycle analysis by flow cytometry (propidium iodide). The data set is classed as cell-based, human. Particulars: 40 μg/mL, 24 h. As for the experimental part:
CCD 841 CoN cells were grown in 6-well plates at an initial cell density of 2 × 10^4 cells/cm^2 for 24 h under standard culture conditions. The cells were treated for 24 h with the analyzed compounds at a concentration of 40 μg/mL; the high dose was applied because of the relatively low cytotoxic potential of ST-OA and ST-LA as determined in cytotoxicity studies. In addition, the cells were exposed to 0.05 μM camptothecin (Sigma-Aldrich) as a positive reference compound known to modulate cell cycle progression.
After treatment, the cells were harvested by trypsinization, washed in PBS, and fixed in 70% ethanol. Then, the cells were stained with 50 μg/mL propidium iodide in the presence of 100 μg/mL RNase (Sigma-Aldrich). The sample preparation method and staining protocol were described previously. The cycle phase distribution was analyzed with an Amnis™ FlowSight™ flow cytometer (Luminex Corporation, TX, USA).
Background: A flow cytometer gives signals particle by particle.

For data set [4], the system named is caspase 3/7 activity in CCD 841 CoN cells. The data set can be described thus: Caspase 3/7 activity assay (APO-One Homogeneous). The data set is classed as cell-based, human. Particulars: 40 μg/mL, 24 h. As to the method: CCD 841 CoN cells were grown in black 96-well plates at an initial cell density of 2 × 10^4 cells/cm^2 for 24 h under standard culture conditions. The cell cultures were treated for 24 h with ST, ST-OA, and ST-LA at a 40 μg/mL dose. After treatment, caspase-3/7 activity was determined using the APO-One Homogeneous Caspase-3/7 Assay (Promega Corporation, Wisconsin, USA), which is based on the proteolytic cleavage of C-terminal side of aspartate residue in the DEVD peptide substrate by caspase 3/7 into fluorescent rhodamine 110 (R110). Analysis of caspase 3/7 activity was carried out following the manufacturer's instructions. Briefly, the cells after the treatment were incubated at room temperature with Apo-ONE® Caspase-3/7 Reagent—bifunctional cell lysis/caspase activity buffer combined with the pro-fluorescent caspase-3/7 substrate Z-DEVD-R110. After 4-h incubation, fluorescence was measured at an excitation wavelength of 485 nm and an emission wavelength of 530 nm using a Tecan M200 Infinite microplate reader. Data obtained were normalized to cellular protein content, quantified by BCA assay (Pierce® BCA Protein Assay Kit, Thermo Scientific Inc., USA) according to the manufacturer's protocol.

Data set [5] can be described thus: Thermo-oxidative treatment at 180 °C for 8 h, degradation of the compound. The data set is classed as physicochemical. Particulars: heated at 180 °C for 8 h under oxygen atmosphere. As to the method:
ST, ST-OA, and ST-LA (50 mg each) were placed separately in glass vials and heated at 180 °C for 8 h under an oxygen atmosphere. After thermo-oxidative treatment, the tested compounds were stored at − 20 °C until chemical and biological analyses. The non-heated and heated ST and its esters were analyzed to detect degradation products and oxyderivatives. Analytical methods were described in the article published previously.

The subject of another data set is FHs 74 Int cells. Also on record: method as in PMID 31883991. Particulars: normal human small intestine cells; cited from earlier work.
The subject of data set [6] is CCD 841 CoN cells. The data set can be described thus: MultiTox-Fluor Multiplex Cytotoxicity Assay (live and dead cell fluorescence). The data set is classed as cell-based. Particulars: doses up to 40 μg/mL, 48 h. As to the method: The normal human diploid CCD 841 CoN cell line (ATCC® CRL-1790™) isolated from colon mucosa was obtained from American Type Culture Collection (ATCC, Manassas, VA, USA). Cells were cultured in Dulbecco’s Modified Eagle’s Medium (DMEM, Sigma-Aldrich) supplemented with fetal bovine serum (FBS; Gibco BRL, Grand Island, NY, USA) to a final concentration of 10% and maintained at 37 °C in a humidified atmosphere with 5% CO2.
In the cytotoxicity experiments, CCD 841 CoN cells were seeded in 96-well plates at an initial density of 2.0 × 10^4 cells/cm^2 and incubated for 24 h. […] Control culture contained the vehicle at the amount corresponding to the sample analyzed.
The Multitox-Fluor Multiplex Cytotoxicity Assay (Promega GmbH, Mannheim, Germany) was applied to determine the relative number of live and dead cells in the CCD 841 CoN cell cultures treated with the analyzed compounds. The assay determined live- and dead-cell protease activities using two fluorogenic peptide substrates, cell-permeant (glycyl-phenylalanyl-amino fluorocoumarin; GF-AFC) and cell-impermeant (bis-alanyl-alanyl-phenylalanyl-rhodamine 110; bis-AAF-R110). After treatment, the cells were incubated with GF-AFC and bis-AAF-R110 substrates for 60 min at 37 °C. The live- and dead-cell proteases produced AFC and R110 products, measured using a Tecan M200 Infinite microplate reader (Tecan Group Ltd., Männedorf, Switzerland) at different excitation (400 nm and 485 nm) and emission (505 nm and 520 nm) spectra. The assay was conducted according to the manufacturer’s instructions.

A further data set concerns THLE-2 cells. Also on record: method as in PMID 31883991. The note with it: normal human liver cells; cited from earlier work.
Setting [7] is: with metabolic activation (+ S9), reference mutagen.

For the compound `Nc1ccc2cc3ccccc3cc2c1` [2-Aminoanthracene, 2-aminoanthracene, reference compound], the “Mutagenic index TA102” value in the data set on S. typhimurium TA102 (setting [7]) was 2.95. Also, the “Mutagenic index TA100” value in the data set on S. typhimurium TA100 (with metabolic activation (+ S9)) is 2.03. In the data set on S. typhimurium TA98 (setting [7]), the “Mutagenic index TA98” value was 6.00.

Take `OO` [H2O2, reference compound]: the “total comet score (TCS)” value in the data set on CCD 841 CoN cells [1] is 263.1 ± 29.4.

As to `CCCCC/C=C\C/C=C\CCCCCCCC(=O)OC1CCC2(C)C(=CCC3C2CCC2(C)C(C(C)/C=C/C(CC)C(C)C)CCC32)C1` (stereo not shown) [ST-LA, stigmasteryl linoleate], the “DNA synthesis inhibition” value with CCD 841 CoN cells [2] is “not observed”. The “effect on TA102 revertants” value in the data set with S. typhimurium TA102 is “did not affect the number of TA102 revertants”. Besides, in the data set on S. typhimurium TA100, the “reversion of mutations in TA100” value is recorded as “did not induce the reversion of mutations”. Also, the “subpopulation of dead cells with lower/reduced DNA content” value in the data set with CCD 841 CoN cells [3] is recorded as “Slight expanding the cell subpopulation with reduced DNA content”. Besides, the “caspase 3/7 activity” value in data set [4] is recorded as “slightly increased caspase-3/7 activities”. In data set [5], the “Fatty acid residue depletion (%)” value worked out at 31.11 ± 3.2% and the “Sterol moiety depletion (%)” value amounted to 71.6 ± 6.6%. Moreover, the “cytotoxic effects” value in the data set on FHs 74 Int cells is “no cytotoxic effects”. Further, the “effect on colon cell viability / cytotoxicity” value in the data set on CCD 841 CoN cells [6] was “did not affect colon cell viability”. Further, the “reversion of mutations in TA98” value in the data set with S. typhimurium TA98 was “did not induce the reversion of mutations”. Besides, the “cytotoxic effects” value with THLE-2 cells is on record as “no cytotoxic effects”.

Take `CCCCCCCC/C=C\CCCCCCCC(=O)OC1CCC2(C)C(=CCC3C2CCC2(C)C(C(C)/C=C/C(CC)C(C)C)CCC32)C1` (stereo not shown) [ST-OA, stigmasteryl oleate]: the “DNA synthesis inhibition” value with CCD 841 CoN cells [2] is listed as “not observed”. Also, in the data set on S. typhimurium TA102, the “effect on TA102 revertants” value was “did not affect the number of TA102 revertants”. In the data set with S. typhimurium TA100, the “reversion of mutations in TA100” value is reported as “did not induce the reversion of mutations”. The “subpopulation of dead cells with lower/reduced DNA content” value with CCD 841 CoN cells [3] is given as “Slight expanding the cell subpopulation with reduced DNA content”. In [4], the “caspase 3/7 activity” value is listed as “slightly increased caspase-3/7 activities”. Also, the “Fatty acid residue depletion (%)” value in data set [5] is recorded as 77.14 ± 5.3%. The “Sterol moiety depletion (%)” value in [5] turned out to be 88.8 ± 3.5%. Besides, the “cytotoxic effects” value with FHs 74 Int cells and with THLE-2 cells was “no cytotoxic effects” each time. In addition, the “effect on colon cell viability / cytotoxicity” value with CCD 841 CoN cells [6] is “did not affect colon cell viability”. The “reversion of mutations in TA98” value in the data set with S. typhimurium TA98 is recorded as “did not induce the reversion of mutations”.

Take `[N-]=[N+]=[N-].[Na+]` [Sodium azide, sodium azide, reference compound]: the “Mutagenic index TA100” value was 13.55 in the data set on S. typhimurium TA100 (without metabolic activation (− S9), dose printed with the label) and 13.6 in the data set with S. typhimurium TA100 (without metabolic activation (− S9), dose printed with the label, listed as sodium azide).
